The source of these data is paper PMC10424673 (Journal of Medicinal Chemistry, 2023).

The subject of data set [1] is GFP under CREB in HEK293 cells stably expressing hGLP-2R. In words: Western blot of GFP expression under control of CREB in HEK293 cells stably expressing hGLP-2R. The class given is cell-based, human. The settings on record: 10 μM peptide, after 36 hours of incubation, mean ± sd, n = 3. An excerpt:
We then investigated the downstream effects of stimulating GLP-2R with the D-GLP-2 analogues to study the D-peptide designs’ effects on GLP-2R. We wanted to determine whether activating GLP-2R with D-GLP-2 analogues would promote GFP expression in HEK293 cells containing a GFP gene under the control of cAMP response element binding protein (CREB) and AKT phosphorylation. We also checked the beta-actin expression in all the treatments as loading controls. Of relevance, all peptides induced a similar GFP expression under the CREB, reaching saturation between 24 and 48 h of incubation (Figures 5E,F, S1A, Table S3). We also found a concentration-dependent increase in GFP expression in response to all the peptides’ stimulation (Figure S1B).
The cells were lysed with a lysis buffer 50 mM Tris-HCl pH 7.4, 1% Nonidet P-40, 150 mM NaCl, 1 mM ethylenediaminetetraacetic acid, 10 mM Na3VO4, 10 mM sodium pyrophosphate, and 25 mM NaF, 1× protease inhibitor mixture (Sigma) for 30 min at 4 °C. […] The transferred samples were immunoblotted with primary antibodies, followed by incubation with horseradish peroxidase-conjugated secondary antibodies (Santa Cruz Biotechnology) and detected using enhanced chemiluminescence (GE Healthcare).
On the technique in general: In western blotting, separated proteins are transferred to a membrane and probed.

Data set [2] concerns the target T1, hGLP-2R (Homo sapiens, UniProt O95838).
T1 construct: expressed in transfected cells
T1 sequence (O95838 1-553): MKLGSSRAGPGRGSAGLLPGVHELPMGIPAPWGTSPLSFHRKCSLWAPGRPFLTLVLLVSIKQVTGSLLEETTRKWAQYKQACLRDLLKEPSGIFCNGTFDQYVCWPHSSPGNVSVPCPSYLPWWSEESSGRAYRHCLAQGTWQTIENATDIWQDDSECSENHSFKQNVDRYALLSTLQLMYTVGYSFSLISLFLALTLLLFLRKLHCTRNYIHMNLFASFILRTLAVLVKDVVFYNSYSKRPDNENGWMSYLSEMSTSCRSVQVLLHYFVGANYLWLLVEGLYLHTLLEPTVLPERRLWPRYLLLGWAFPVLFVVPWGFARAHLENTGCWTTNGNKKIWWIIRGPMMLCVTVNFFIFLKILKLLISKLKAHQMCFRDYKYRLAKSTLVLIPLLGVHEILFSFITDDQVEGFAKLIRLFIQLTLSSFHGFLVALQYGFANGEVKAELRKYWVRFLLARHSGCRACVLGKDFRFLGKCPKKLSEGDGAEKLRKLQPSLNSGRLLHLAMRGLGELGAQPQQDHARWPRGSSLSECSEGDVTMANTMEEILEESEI
Kind of data set: HTRF cAMP assay in GLP-2R-expressing HEK293 cells. The class given is cell-based.

In data set [3] the target is proteinase K (Parengyodontium album, UniProt P06873). The settings on record: 20 μM peptide, ProtK 100 μg/mL, 10 mM Tris-base, 10 mM NaCl, pH 7.4, 5 μM CaCl2, 37 °C, SDS-PAGE Coomassie densitometry normalised to T0, repeated three times.
In data set [4] the target is DPP-IV (Homo sapiens, UniProt P27487). The settings on record: 20 μM peptide, DPP-IV 50 μg/mL, 100 mM Tris pH 8.0, 2.5 h, SDS-PAGE densitometry and mass spectrometry.
Data set [5] addresses T2, GLP-2R (Homo sapiens, UniProt O95838).
T2 construct: host or cells: CHO-K1 PathHunter reporter cells
Set-up: method as in 2 sources, one per row (each row's own in cited_ref): ref 28 (Gadgaard et al.) ||| ref 28 = [28]; PMID 36780786; doi:10.1016/j.biopha.2023.114383; Gadgaard S.; Windeløv J. A.; Schiellerup S. P.; Holst J. J.; Hartmann B.; Rosenkilde M. M. Long-Acting Agonists of Human and Rodent Glp-2 Receptors for Studies of the Physiology and Pharmacologic. The settings on record: cited from earlier work.

The target in data set [6] is T2, GLP-2R. Set-up: method as in PMID 36780786. The settings on record: cited from earlier work.

Where a SMILES comes first, the peptide text is derived from it. [ ]: non-standard residue; d: D form. The star is where a group is joined. NHNH2 = NN*

T2 sequence (P32121 whole entry partner, one chain of several): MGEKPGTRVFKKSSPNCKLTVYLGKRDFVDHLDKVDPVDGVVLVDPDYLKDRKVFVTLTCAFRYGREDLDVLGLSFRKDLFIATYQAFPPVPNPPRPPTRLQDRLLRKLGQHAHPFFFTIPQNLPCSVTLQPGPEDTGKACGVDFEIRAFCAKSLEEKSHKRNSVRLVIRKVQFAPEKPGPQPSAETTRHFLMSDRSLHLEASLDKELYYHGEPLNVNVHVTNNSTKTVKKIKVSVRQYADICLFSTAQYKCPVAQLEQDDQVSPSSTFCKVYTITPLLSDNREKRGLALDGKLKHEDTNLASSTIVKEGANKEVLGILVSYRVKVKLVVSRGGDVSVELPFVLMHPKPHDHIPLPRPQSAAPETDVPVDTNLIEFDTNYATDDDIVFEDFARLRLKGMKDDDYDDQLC
DPP-IV, sequence (P27487 whole entry, species assumed): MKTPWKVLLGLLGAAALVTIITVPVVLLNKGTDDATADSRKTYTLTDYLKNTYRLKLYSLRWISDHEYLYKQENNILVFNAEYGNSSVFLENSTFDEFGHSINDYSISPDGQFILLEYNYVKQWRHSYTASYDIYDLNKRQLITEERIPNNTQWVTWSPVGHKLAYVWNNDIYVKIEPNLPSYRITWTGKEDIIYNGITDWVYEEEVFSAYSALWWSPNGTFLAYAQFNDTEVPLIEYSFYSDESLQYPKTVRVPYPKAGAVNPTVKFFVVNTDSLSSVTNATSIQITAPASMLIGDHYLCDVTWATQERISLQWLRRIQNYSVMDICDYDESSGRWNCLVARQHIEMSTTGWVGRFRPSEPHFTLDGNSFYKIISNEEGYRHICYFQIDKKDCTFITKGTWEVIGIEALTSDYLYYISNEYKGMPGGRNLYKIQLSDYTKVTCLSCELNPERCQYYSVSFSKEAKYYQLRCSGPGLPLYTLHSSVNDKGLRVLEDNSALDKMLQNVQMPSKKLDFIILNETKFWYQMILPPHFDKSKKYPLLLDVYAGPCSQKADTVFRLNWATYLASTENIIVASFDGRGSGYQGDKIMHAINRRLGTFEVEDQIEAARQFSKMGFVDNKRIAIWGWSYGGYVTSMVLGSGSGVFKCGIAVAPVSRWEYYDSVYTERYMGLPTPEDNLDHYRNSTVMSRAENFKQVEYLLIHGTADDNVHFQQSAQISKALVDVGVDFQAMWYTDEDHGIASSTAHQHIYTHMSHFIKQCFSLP
proteinase K, sequence (P06873 106-384): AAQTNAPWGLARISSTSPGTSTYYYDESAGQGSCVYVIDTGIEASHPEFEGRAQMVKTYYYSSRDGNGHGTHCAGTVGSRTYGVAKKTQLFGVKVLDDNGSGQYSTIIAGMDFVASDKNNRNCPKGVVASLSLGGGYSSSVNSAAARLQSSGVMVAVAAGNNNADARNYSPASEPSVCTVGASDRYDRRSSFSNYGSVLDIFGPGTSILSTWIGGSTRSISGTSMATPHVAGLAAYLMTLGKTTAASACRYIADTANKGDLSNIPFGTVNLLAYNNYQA

The EC50 is the concentration that produces a half-maximal response. A high value points to a need for much substance. Consider `CC[C@@H](C)[C@@H](NC(C)=O)C(=O)N[C@H](CCCCN)C(=O)N[C@H](C)C(=O)N[C@H](CCC(N)=O)C(=O)N[C@H](Cc1c[nH]c2ccccc12)C(=O)N[C@H](CC(C)C)C(=O)N[C@H](C)C(=O)N[C@H](C)C(=O)N[C@H](CCC(=O)O)C(=O)N[C@H](Cc1ccccc1)C(=O)N[C@@H](C(=O)N[C@H](CCC(N)=O)C(=O)N[C@H](C)C(=O)N[C@@H](C(=O)N[C@H](C)C(=O)N[C@H](C)C(=O)N[C@@H](C(=O)N[C@H](CC(C)C)C(=O)N[C@H](C)C(=O)N[C@H](CCSC)C(=O)N[C@H](CC(C)C)C(=O)N[C@H](CCCNC(=N)N)C(=O)N[C@H](CC(N)=O)C(=O)N[C@H](CC(N)=O)C(=O)N[C@H](CCC(N)=O)C(=O)N[C@H](Cc1ccccc1)C(=O)N[C@H](CCC(=O)O)C(=O)N[C@H](Cc1ccccc1)C(=O)N[C@H](C)C(=O)NCC(=O)N[C@@H](C(=O)N[C@H](C)C(=O)N[C@H](Cc1c[nH]cn1)C(=O)NN)C(C)C)C(C)C)C(C)C)[C@H](C)CC` [D-GLP-2 E33A hydrazide] (Ac-[dI][dK][dA][dQ][dW][dL][dA][dA][dE][dF][dI][dQ][dA][dV][dA][dA][dV][dL][dA][dM][dL][dR][dN][dN][dQ][dF][dE][dF][dA]G[dV][dA][dH]-NHNH2), for which the “GFP relative expression level, relative to L-GLP-2-treated cells” value in data set [1] was 1.08 ± 0.14. In data set [2], this molecule yielded an EC50 of 226 nM. Also, the “improvement of GLP-2R activation compared to D-GLP-2” value in data set [2] (ratio of cAMP EC50 values, compared to D-GLP-2) is 6.26 fold.
In turn, `CC[C@@H](C)[C@@H](NC(C)=O)C(=O)N[C@H](CCCCN)C(=O)N[C@H](C)C(=O)N[C@H](CCC(N)=O)C(=O)N[C@H](Cc1c[nH]c2ccccc12)C(=O)N[C@H](CC(C)C)C(=O)N[C@H](C)C(=O)N[C@H](C)C(=O)N[C@H](CCC(=O)O)C(=O)N[C@H](Cc1ccccc1)C(=O)N[C@@H](C(=O)N[C@H](CCC(N)=O)C(=O)N[C@H](C)C(=O)N[C@@H](C(=O)N[C@H](C)C(=O)N[C@H](C)C(=O)N[C@@H](C(=O)N[C@H](CC(C)C)C(=O)N[C@H](C)C(=O)N[C@H](CCSC)C(=O)N[C@H](CC(C)C)C(=O)N[C@H](CCCNC(=N)N)C(=O)N[C@H](CC(N)=O)C(=O)N[C@H](CC(N)=O)C(=O)N[C@H](CCC(N)=O)C(=O)N[C@H](Cc1ccccc1)C(=O)N[C@H](CCC(=O)O)C(=O)N[C@H](Cc1ccccc1)C(=O)N[C@H](C)C(=O)NCC(=O)N[C@@H](C(=O)N[C@H](CCC(=O)O)C(=O)N[C@H](Cc1c[nH]cn1)C(N)=O)C(C)C)C(C)C)C(C)C)[C@H](C)CC` [D-GLP-2] (Ac-[dI][dK][dA][dQ][dW][dL][dA][dA][dE][dF][dI][dQ][dA][dV][dA][dA][dV][dL][dA][dM][dL][dR][dN][dN][dQ][dF][dE][dF][dA]G[dV][dE][dH]-NH2) yielded an EC50 in data set [2] of 1420 nM. Further, the “times less potent (weaker EC50) than native L-GLP-2” value in data set [2] (ratio of cAMP EC50 to that of GLP-2) is given as 35 times.
Take `CC[C@H](C)[C@H](NC(=O)[C@H](Cc1ccccc1)NC(=O)[C@H](CC(=O)O)NC(=O)[C@H](CCCNC(=N)N)NC(=O)[C@H](C)NC(=O)[C@H](C)NC(=O)[C@H](CC(C)C)NC(=O)[C@H](CC(N)=O)NC(=O)[C@H](CC(=O)O)NC(=O)[C@H](CC(C)C)NC(=O)[C@@H](NC(=O)[C@@H](NC(=O)[C@H](CC(N)=O)NC(=O)[C@H](CCSC)NC(=O)[C@H](CCC(=O)O)NC(=O)[C@H](CC(=O)O)NC(=O)[C@H](CO)NC(=O)[C@H](Cc1ccccc1)NC(=O)[C@H](CO)NC(=O)CNC(=O)[C@H](CC(=O)O)NC(=O)CNC(=O)[C@@H](N)Cc1c[nH]cn1)[C@@H](C)O)[C@@H](C)CC)C(=O)N[C@@H](CC(N)=O)C(=O)N[C@@H](Cc1c[nH]c2ccccc12)C(=O)N[C@@H](CC(C)C)C(=O)N[C@H](C(=O)N[C@@H](CCC(N)=O)C(=O)N[C@H](C(=O)N[C@@H](CCCCN)C(=O)N[C@H](C(=O)N[C@H](C(=O)N[C@@H](CC(=O)O)C(=O)O)[C@@H](C)O)[C@@H](C)CC)[C@@H](C)O)[C@@H](C)CC` [L-GLP-2-2G]: the “peptide remaining after proteinase K exposure, 2 h” value in data set [3] is “almost complete loss”. In data set [4], the “peptide remaining after incubation with DPP-IV” value is listed as “remained intact”.
As for “GLP-2_3–33: the product of DPP-IV inactivation of GLP-2_1–33 (DGSFSDEMNTILDNLAARDFINWLIQTKITD; Glucagon-like peptide 2; UniProt P01275 148-178, looked up, fragment)”, in data set [5], the “mode of action at GLP-2R” value is listed as “competitive antagonist of GLP-2_1–33”. Also, in data set [5] (ref 28 (Gadgaard et al.)), the “efficacy at GLP-2R” value is recorded as 11%. Besides, the “β-arrestin 1 and 2 recruitment” value in data set [6] is “could not recruit β-arrestin 1 and 2”.
